Paper doi:10.1101/212043v1 (biorxiv, 2017)

How the values were obtained:
hsHDAC11 [1] = target: T1, hsHDAC11 (Homo sapiens, UniProt Q96DB2); test: HPLC deacylation assay, Abz fluorescence; type: biochemical; conditions: […] trifluoroacetylated peptide substrate, […] enzyme, […]°C; activator
T1 sequence (Q96DB2 1-347): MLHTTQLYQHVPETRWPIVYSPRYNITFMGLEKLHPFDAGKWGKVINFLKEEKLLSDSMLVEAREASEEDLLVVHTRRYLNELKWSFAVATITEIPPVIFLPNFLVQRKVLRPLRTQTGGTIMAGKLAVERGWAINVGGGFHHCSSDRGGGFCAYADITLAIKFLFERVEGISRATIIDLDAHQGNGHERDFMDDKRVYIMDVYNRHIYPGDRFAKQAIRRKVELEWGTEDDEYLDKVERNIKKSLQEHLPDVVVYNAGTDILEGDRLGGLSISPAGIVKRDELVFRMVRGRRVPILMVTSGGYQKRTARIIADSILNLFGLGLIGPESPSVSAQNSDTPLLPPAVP

hsHDAC11 [2] = target: T1, hsHDAC11; test: HPLC deacylation assay, Abz fluorescence; type: biochemical; conditions: read-out: % inhibition at 100 μM

| fold stimulation at 100 μM (hsHDAC11 [1]) | inhibition at 100 µM (hsHDAC11 [2]) | SMILES |
| --- | --- | --- |
| 2.5 fold |  | CCCCCCCCCCCCCC(=O)SCCNC(=O)CCNC(=O)[C@H](O)C(C)(C)COP(=O)(O)OP(=O)(O)OC[C@H]1O[C@@H](n2cnc3c(N)ncnc32)[C@H](O)[C@@H]1OP(=O)(O)O [myristoyl-CoA] |
|  | > 70% | CCCCCCCCCCCCCCCC(=O)SCCNC(=O)CCNC(=O)[C@H](O)C(C)(C)COP(=O)(O)OP(=O)(O)OC[C@H]1O[C@@H](n2cnc3c(N)ncnc32)[C@H](O)[C@@H]1OP(=O)(O)O [palmitoyl-CoA] |
